# Experimental data as given in patent US12055553B2, “Method for diagnosing risk for inflammatory disease through glycan profiling” (The Regents of the University of California, priority 2017, dated 2024).
# Key:
# [1] = test system: Caco-2 cells; format: cell-based; details: Caco-2, kifunensine-treated
# Experimental: We examined whether supplementation of free monosacchaides derived from diet changes N-glycosylation outcomes on the intestinal cell-surface at concentrations relevant to physiological conditions. Changes in glycosylation were assessed by globally releasing glycans from membrane proteins extracted from fully differentiated (Caco-2) and partially differentiated (HT-29) intestinal epithelial cells and analyzing the mixture by porous graphitized carbon (PGC)-LC-MS. […] The glycan profile under normal growth conditions was used as a frame of reference with which to compare the glycome at varied environments.
# Human colorectal adenocarcinoma Caco-2 cells derived from a person, were obtained from American Type Culture Collection (ATCC, VA) and grown in Eagle's Minimum Essential Medium (EMEM) supplemented with non-essential amino acids, 2 mM L-glutamine, 10% (v/v) fetal bovine serum (Life Technologies, NY), 1 mM sodium pyruvate, 1.5 g/L sodium bicarbonate, 100 U/mL penicillin, and 100 μg/mL streptomycin. Alternatively, Caco-2 cells were grown in Dulbecco's Modified Eagle's Medium (DMEM) supplemented with 10% (v/v) fetal bovine serum, 100 U/mL penicillin, and 100 μg/mL streptomycin. Human colorectal adenocarcinoma HT-29 cells, derived from a person, were obtained from ATCC and grown in McCoy's 5A medium supplemented with 10% (v/v) fetal bovine serum, 100 U/mL penicillin, and 100 μg/mL streptomycin. Cells were subcultured at 80% confluency and maintained at 37° C. in a humidified incubator with 5% CO=2. All treatments were added to the media after cell differentiation. Caco-2 cells were fully differentiated 14-days post-confluency. HT-29 cells were partially differentiated 4-days post-confluency. After 72 h, cells were collected in biological triplicates by scraping A fixed count of 2×10^6 viable cells was used for each experiment Passage number between experiments was controlled to no higher than P40 and a delta P of no more than 20. High passage cells were scraped after P80. Media was renewed three times a week unless specified. Monolayer integrity and quality of cell borders were evaluated under the microscope routinely during growth and before harvest.
# In brief harvested cells were resuspended in homogenization buffer containing 0.25 M sucrose, 20 mM HEPES-KOH (pH 7.4), and 1:100 protease inhibitor (EMD Millipore, CA). Cell lysis was performed on ice using a probe sonicator (Qsonica, CT) with five alternating and on and off pulses in 5 and 10 s intervals, respectively. Lysates were […] at 2,000×g for 10 min to remove the nuclear fraction and cellular debris. The supernatant was collected and brought to 1 mL with homogenization buffer for ultracentrifugation at 200,000×g for 45 min at 4° C. The pallet was resuspended and repelleted by ultracentrifugation in 0.2 M Na2CO3 (pH 11) followed by water to fragment the endoplasmic reticulum and remove the cytoplasmic fraction, respectively. The resulting membrane faction was isolated and stored at −20° C. until further processing.
# Membrane pellets were resuspended with 100 μL of 100 mM ammonium bicarbonate in 5 mM dithiothreitol and heated for 10 s at 100° C. to thermally denature the proteins. […] After addition of 400 μL of chilled ethanol, samples were placed in −80° C. for 1.5 h and centrifuged for 20 min at 21,130×g to precipitate residual deglycosylated proteins. The supernatant containing the released N-glycans was collected and dried. N-Glycans were purified by solid phase extraction containing a porous graphitized carbon (PGC) matrix. Eluted fractions were dried in vacuo.
# [2] = test system: Caco-2 cells; experiment: Permeability assay, FITC-dextran passage through Caco-2 monolayer; format: cell-based, Human; details: 100 μg/mL treatment, after 2 h, untreated to treated, n=4
# Experimental: Caco-2 cells were seeded on porous polycarbonate filter membranes (3401; Corning, NY) until cells formed a single monolayer and were fully differentiated. Kifunensine (Carbosynth, CA) was added post-differeniation for 72 h. Four replicates were prepared for both control and kifunensine-treated cases. Permeability experiments were performed in Hank's Balanced Salt Solution, prepared with 25 mM HEPES, 0.35 g/L sodium bicarbonate, and adjusted to pH 7.4 with sodium hydroxide. The prepared membranes were washed and inserted into a new micro-well plate. FITC-dextran (4 kDa) (Sigma-Aldrich, MO) was introduced to the upper (apical) chamber at 10 mg/mL. The plate was placed in a 37° C. incubator devoid of CO2 for 2 h on an orbital shaker at 100 rpm. The amount of FITC-dextran that transferred through the cells was measured in the lower (basolateral) chamber by fluorescence at 492/520 nm (excitation/emission) using a Perkin Elmer Victor3 Multilabel Plate Reader (Parkin Elmer, MA). The apparent permeability coefficient was determined according to the following equation: [formula] where dQ/dt is the rate of permeation across cells, A is the surface area of the membrane, and C0 is the initial donor concentration. Transepithelial electrical resistance (TEER) values were measured using a Millicell ERS Voltohmmeter (EMD Millipore, MA) at room temperature. Enzyme Activity Assay
# [3] = test system: enterohaemorrhagic Escherichia coli (EHEC); experiment: Bacterial association assay on Caco-2 host cells, EHEC; format: cell-based, Escherichia coli O157:H7
# Experimental: (§1) Enterohaemorrhagic Escherichia coli O157H;7 (EHEC) and methicillin-resistant Staphyloccuus aureus (MRSA) were grown at 37° C. with continuous shaking for 14-16 h.
# (§2) Caco-2 cells were seeded into 24-well plates at 5×10^5 cells per well. Wells were designated as control (Row 1) or treated with kifunensine (Row 2). For adhesion, the left half of the plate was infected with logarithmically growing enterohaemorrhagic Escherichia coli O157:H7 (EHEC), and the right half of the plate was infected with methicillin-resistant Staphylocaccus aureus (MRSA). Triplicate setups were prepared for each condition. After 2 h, the wells were washed 3× with PBS and the adherent cell counts were determined by serial dilutions and spotting of the lysate generated upon treatment of the wells with, PBS/0.5% Triton for 5 min. CFU are expressed per mL as a comparison between the different treatments. For measuring uptake, the duplicate plate was similarly infected with EHEC and MRSA. Two hours post-infection, the unbound bacteria were washed with PBS (3×) and the Caco-2-cells were treated with media containing 100 μg/mL gentamicin to lyse cell surface associated bacteria. Following a 2 h-treatment, the internalized bacterial cell counts were derived upon lysing the Caco-2 cells with PBS/0.5% Triton followed by serial dilution and CFU counts.
# [4] = test system: alkaline phosphatase (IAP); experiment: Intestinal alkaline phosphatase activity in membrane fractions of treated Caco-2 cells; format: cell-based, Human; details: enriched membrane fractions of kifunensine-treated (high mannose rich) cells
# Experimental: Intestinal alkaline phosphatase (IAP) activity was measured in membrane-enriched factions using a colorimetric assay per manufacturer's instructions (Abcam, MA). Cells were incubated with 50 μM p-nitrophenyl phosphate (p-NPP) for 60 min. Dephosphorylated was monitored by the production of p-nitrophenyl, which turns the solution to a visible yellow color. Absorbance readings were taken at 405 nm with a microplate photometer. Enzyme activities were determined with a standard curve generated using IAP enzyme. Activity was measured in U/mL, where a Unit is defined as the amount of enzyme to hydrolyze 1 μmol of p-NPP per minute at 37° C.
# [5] = test system: methicillin-resistant Staphylococcus aureus (MRSA); experiment: Bacterial association assay on Caco-2 host cells, MRSA; format: cell-based
# Experimental: as §1, §2
# [6] = test system: dipeptidyl peptidase IV (DPP IV); experiment: Dipeptidyl peptidase IV activity in membrane fractions of treated Caco-2 cells; format: cell-based, Human; details: membrane fractions of kifunensine-treated cells
# Experimental: Dipeptidyl peptidase IV (DPP IV) activity was measured in membrane-enriched fractions using a colorimetric assay per manufacturer's instructions (Enzo Life sciences, NY). Membrane extracts from control and kifunensine-treated cells were incubated with a chromogenic substrate (H-Gly-Pro-pNa) at 25° C. for 30 min. Cleavage of p-nitroaniline (pNA) was monitored by absorbance measurements at […] with a microplate photometer. Enzyme activities were compared to a standard curve generated using a pNA standard. A reaction containing a DPP IV inhibitor (P32/98) was included as a control for enzymatic specificity.
# [7] = hyper-mannosylated (kifunensine-treated) Caco-2, within 2 h
smiles,measurement,setting,value
O=C1N[C@@H]2[C@@H](O)[C@@H](O)[C@H](O)[C@@H](CO)N2C1=O [kifunensine],cell viability,[1],without affecting viability
same,conversion of surface glycans into high mannose glycans,[1],nearly complete conversion
same,maximum increase in passage of FITC-D4 from upper to lower chamber,[2],64%
same,EHEC uptake in comparison to control cells,"[3]; Caco-2 rich in high mannose glycans (kifunensine-treated), p=0.0005",significantly reduced
same,EHEC binding to the monolayer,[3]; [7],did not significantly affect
same,decrease in IAP activity vs unaltered Caco-2 cells,[4],~32%
same,increase in ability of MRSA to adhere to the monolayer,[5]; [7],> 5000%
same,more MRSA bacteria able to invade transformed host cells than untreated cells,[5]; kifunensine-transformed Caco-2,approximately 30%
same,DPP IV activity change,[6],nearly unaffected
